Test results from the supplement of paper PMC13207355.

How the values were obtained:
Conditions in all cases: exposure time: 72 h
E13 [1] = patient-derived glioblastoma stem cells of classical subtype; experiment: surviving fraction (nuclei count normalised to DMSO); higher = more cells surviving (less toxic)
E31 [2] = patient-derived glioblastoma stem cells of proneural subtype; experiment: as above
E57 [3] = patient-derived glioblastoma stem cells of mesenchymal subtype; experiment: as above
FT3469 [4] = normal neural stem cell line; experiment: as above
E28 [5] = patient-derived glioblastoma stem cells of classical subtype; experiment: as above
E21 [6] = patient-derived glioblastoma stem cells of mesenchymal subtype; experiment: as above
E34 [7] = patient-derived glioblastoma stem cells of proneural subtype; experiment: as above
E13 [8] = experiment: phenotypic distance (Euclidean, principal components) from DMSO controls (arbitrary units); higher = stronger morphological change
E31 [9] = experiment: as above
E57 [10] = experiment: as above
FT3469 [11] = experiment: as above
E28 [12] = experiment: as above
E21 [13] = experiment: as above
E34 [14] = experiment: as above
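For phenotypic distance (Euclidean, principal components) from DMSO controls in this document: cell Painting imaging in 384-well plates, CellProfiler features reduced to at least 20 principal components, Euclidean distance versus same-plate DMSO vehicle wells (0.1% v/v), median over six images per well.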
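For surviving fraction (nuclei count normalised to DMSO) in this document: nuclei counted by high-content imaging of Hoechst-stained cells in laminin-coated 384-well plates, relative to 0.1% DMSO vehicle wells, with staurosporine as cell-death control.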

COc1cc2c(cc1-c1c(C)noc1C)ncc1[nH]c(=O)n([C@H](C)c3ccccn3)c12
Conditions | phenotypic distance | surviving fraction
E13 [1], 4.1 nM | – | 0.96
E13 [1], 12.3 nM | – | 0.821
E13 [1], 37 nM | – | 0.885
E13 [1], 111.1 nM | – | 0.757
E13 [1], 333.3 nM | – | 0.79
E13 [1], 1000 nM | – | 0.562
E13 [1], 3000 nM | – | 0.473
E13 [8], 4.1 nM | 0.723 | –
E13 [8], 12.3 nM | 0.923 | –
E13 [8], 37 nM | 3.5 | –
E13 [8], 111.1 nM | 1.73 | –
E13 [8], 333.3 nM | 2.84 | –
E13 [8], 1000 nM | 3.74 | –
E13 [8], 3000 nM | 3.72 | –
E21 [6], 4.1 nM | – | 0.942
E21 [6], 12.3 nM | – | 1.05
E21 [6], 37 nM | – | 0.96
E21 [6], 111.1 nM | – | 0.873
E21 [6], 333.3 nM | – | 0.78
E21 [6], 1000 nM | – | 0.567
E21 [6], 3000 nM | – | 0.391
E21 [13], 4.1 nM | 0.956 | –
E21 [13], 12.3 nM | 0.64 | –
E21 [13], 37 nM | 0.943 | –
E21 [13], 111.1 nM | 1.42 | –
E21 [13], 333.3 nM | 2.79 | –
E21 [13], 1000 nM | 4.44 | –
E21 [13], 3000 nM | 6.05 | –
E28 [5], 4.1 nM | – | 1.05
E28 [5], 12.3 nM | – | 0.934
E28 [5], 37 nM | – | 1.14
E28 [5], 111.1 nM | – | 0.933
E28 [5], 333.3 nM | – | 0.976
E28 [5], 1000 nM | – | 0.652
E28 [5], 3000 nM | – | 0.782
E28 [12], 4.1 nM | 0.949 | –
E28 [12], 12.3 nM | 0.901 | –
E28 [12], 37 nM | 0.621 | –
E28 [12], 111.1 nM | 1.03 | –
E28 [12], 333.3 nM | 1.35 | –
E28 [12], 1000 nM | 1.72 | –
E28 [12], 3000 nM | 1.77 | –
E31 [2], 4.1 nM | – | 1.12
E31 [2], 12.3 nM | – | 0.852
E31 [2], 37 nM | – | 1.18
E31 [2], 111.1 nM | – | 0.997
E31 [2], 333.3 nM | – | 1.22
E31 [2], 1000 nM | – | 0.817
E31 [2], 3000 nM | – | 0.628
E31 [9], 4.1 nM | 0.332 | –
E31 [9], 12.3 nM | 0.436 | –
E31 [9], 37 nM | 0.51 | –
E31 [9], 111.1 nM | 0.757 | –
E31 [9], 333.3 nM | 0.725 | –
E31 [9], 1000 nM | 1.98 | –
E31 [9], 3000 nM | 2.07 | –
E34 [7], 4.1 nM | – | 0.897
E34 [7], 12.3 nM | – | 1.11
E34 [7], 37 nM | – | 0.994
E34 [7], 111.1 nM | – | 0.972
E34 [7], 333.3 nM | – | 1.03
E34 [7], 1000 nM | – | 0.882
E34 [7], 3000 nM | – | 0.683
E34 [14], 4.1 nM | 1.02 | –
E34 [14], 12.3 nM | 0.609 | –
E34 [14], 37 nM | 0.687 | –
E34 [14], 111.1 nM | 1.15 | –
E34 [14], 333.3 nM | 1.46 | –
E34 [14], 1000 nM | 1.79 | –
E34 [14], 3000 nM | 2.96 | –
E57 [3], 4.1 nM | – | 1.04
E57 [3], 12.3 nM | – | 0.964
E57 [3], 37 nM | – | 1.14
E57 [3], 111.1 nM | – | 1.08
E57 [3], 333.3 nM | – | 0.915
E57 [3], 1000 nM | – | 0.653
E57 [3], 3000 nM | – | 0.533
E57 [10], 4.1 nM | 4.06 | –
E57 [10], 12.3 nM | 7.45 | –
E57 [10], 37 nM | 0.734 | –
E57 [10], 111.1 nM | 1.05 | –
E57 [10], 333.3 nM | 1.91 | –
E57 [10], 1000 nM | 3.16 | –
E57 [10], 3000 nM | 3.48 | –
FT3469 [4], 4.1 nM | – | 0.954
FT3469 [4], 12.3 nM | – | 0.984
FT3469 [4], 37 nM | – | 0.981
FT3469 [4], 111.1 nM | – | 0.987
FT3469 [4], 333.3 nM | – | 0.837
FT3469 [4], 1000 nM | – | 0.73
FT3469 [4], 3000 nM | – | 0.654
FT3469 [11], 4.1 nM | 1.21 | –
FT3469 [11], 12.3 nM | 1.17 | –
FT3469 [11], 37 nM | 1.25 | –
FT3469 [11], 111.1 nM | 1.2 | –
FT3469 [11], 333.3 nM | 1.04 | –
FT3469 [11], 1000 nM | 1.53 | –
FT3469 [11], 3000 nM | 3.06 | –

COc1cc2ncnc(Nc3cccc(Br)c3)c2cc1OC
Conditions | phenotypic distance | surviving fraction
E13 [1], 4.1 nM | – | 0.967
E13 [1], 12.3 nM | – | 1.02
E13 [1], 37 nM | – | 0.972
E13 [1], 111.1 nM | – | 0.952
E13 [1], 333.3 nM | – | 1.14
E13 [1], 1000 nM | – | 1.04
E13 [1], 3000 nM | – | 0.903
E13 [8], 4.1 nM | 3.14 | –
E13 [8], 12.3 nM | 0.603 | –
E13 [8], 37 nM | 1.05 | –
E13 [8], 111.1 nM | 4.7 | –
E13 [8], 333.3 nM | 3.33 | –
E13 [8], 1000 nM | 1.72 | –
E13 [8], 3000 nM | 1.27 | –
E21 [6], 4.1 nM | – | 1.02
E21 [6], 12.3 nM | – | 0.921
E21 [6], 37 nM | – | 0.943
E21 [6], 111.1 nM | – | 0.867
E21 [6], 333.3 nM | – | 1.06
E21 [6], 1000 nM | – | 0.88
E21 [6], 3000 nM | – | 0.346
E21 [13], 4.1 nM | 0.609 | –
E21 [13], 12.3 nM | 1.01 | –
E21 [13], 37 nM | 0.8 | –
E21 [13], 111.1 nM | 3.3 | –
E21 [13], 333.3 nM | 0.937 | –
E21 [13], 1000 nM | 1.35 | –
E21 [13], 3000 nM | 5.43 | –
E28 [5], 4.1 nM | – | 1.07
E28 [5], 12.3 nM | – | 0.99
E28 [5], 37 nM | – | 0.899
E28 [5], 111.1 nM | – | 0.898
E28 [5], 333.3 nM | – | 0.963
E28 [5], 1000 nM | – | 0.944
E28 [5], 3000 nM | – | 0.918
E28 [12], 4.1 nM | 0.79 | –
E28 [12], 12.3 nM | 0.832 | –
E28 [12], 37 nM | 0.627 | –
E28 [12], 111.1 nM | 1.04 | –
E28 [12], 333.3 nM | 1.13 | –
E28 [12], 1000 nM | 1.23 | –
E28 [12], 3000 nM | 0.966 | –
E31 [2], 4.1 nM | – | 1.05
E31 [2], 12.3 nM | – | 0.755
E31 [2], 37 nM | – | 0.826
E31 [2], 111.1 nM | – | 0.837
E31 [2], 333.3 nM | – | 0.877
E31 [2], 1000 nM | – | 0.767
E31 [2], 3000 nM | – | 0.97
E31 [9], 4.1 nM | 0.794 | –
E31 [9], 12.3 nM | 0.613 | –
E31 [9], 37 nM | 0.892 | –
E31 [9], 111.1 nM | 0.732 | –
E31 [9], 333.3 nM | 1.01 | –
E31 [9], 1000 nM | 0.889 | –
E31 [9], 3000 nM | 1.3 | –
E34 [7], 4.1 nM | – | 1.05
E34 [7], 12.3 nM | – | 0.884
E34 [7], 37 nM | – | 1.07
E34 [7], 111.1 nM | – | 1.12
E34 [7], 333.3 nM | – | 0.965
E34 [7], 1000 nM | – | 1.07
E34 [7], 3000 nM | – | 0.81
E34 [14], 4.1 nM | 0.973 | –
E34 [14], 12.3 nM | 0.835 | –
E34 [14], 37 nM | 1.15 | –
E34 [14], 111.1 nM | 1.03 | –
E34 [14], 333.3 nM | 1.14 | –
E34 [14], 1000 nM | 1.16 | –
E34 [14], 3000 nM | 2.27 | –
E57 [3], 4.1 nM | – | 0.926
E57 [3], 12.3 nM | – | 0.974
E57 [3], 37 nM | – | 0.909
E57 [3], 111.1 nM | – | 0.83
E57 [3], 333.3 nM | – | 0.818
E57 [3], 1000 nM | – | 0.793
E57 [3], 3000 nM | – | 0.656
E57 [10], 4.1 nM | 0.927 | –
E57 [10], 12.3 nM | 1.19 | –
E57 [10], 37 nM | 1.4 | –
E57 [10], 111.1 nM | 1.37 | –
E57 [10], 333.3 nM | 1.71 | –
E57 [10], 1000 nM | 1.59 | –
E57 [10], 3000 nM | 1.98 | –
FT3469 [4], 4.1 nM | – | 0.879
FT3469 [4], 12.3 nM | – | 0.996
FT3469 [4], 37 nM | – | 0.905
FT3469 [4], 111.1 nM | – | 0.858
FT3469 [4], 333.3 nM | – | 1.05
FT3469 [4], 1000 nM | – | 1.04
FT3469 [4], 3000 nM | – | 1.06
FT3469 [11], 4.1 nM | 0.686 | –
FT3469 [11], 12.3 nM | 0.611 | –
FT3469 [11], 37 nM | 0.986 | –
FT3469 [11], 111.1 nM | 0.512 | –
FT3469 [11], 333.3 nM | 0.982 | –
FT3469 [11], 1000 nM | 0.82 | –
FT3469 [11], 3000 nM | 1.29 | –
